Broadly, the IC50 is the point on the concentration scale where inhibition reaches its midpoint.

We go through 24 molecules from patent US20230339927A1, “ATR INHIBITORS AND USES THEREOF” (ANTENGENE DISCOVERY LIMITED, priority 2020, published 2023).

The target of one test is T1, ATR kinase (Homo sapiens, UniProt Q13535).
T1 construct: purchased Eurofins 14-953
The experiment in a line: ATR inhibition assay (mobility shift assay, FAM-RAD17 phosphorylation). In kind it is biochemical. Particulars: substrate FAM-RAD17, ATR kinase (Eurofins). The protocol:
Assay 1: ATR Inhibition Assay
The assay was developed and conducted at Chempartner. All the test compounds were dissolved in 100% DMSO at concentration of 20 mM, then prepare compounds and conducted the assay as follows:
1) Transfer 80 µl20 mM compound to 40 µl of 100% DMSO in a 96-well plate.
2) Serially dilute the compound by transferring 20 µl to 60 µl of 100% DMSO in the next well and so forth for a total of 10 concentrations.
3) Add 100 µl of 100% DMSO to two empty wells for no compound control and no enzyme control in the same 96-well plate. Mark the plate as source plate.
4) Transfer 40 µl of compound from source plate to a new 384-well plate as the intermediate plate.
5) Transfer 60 nl compounds to assay plate by Echo.
No. D14JP007N) into Kinase base buffer (50 mM HEPES, pH 7.5; 0.0015% Brij-35; 0.01% Triton) to prepare 2x enzyme solution, then add 10 µl of 2x enzyme solution to each well of the 384-well assay plate, incubate at room temperature for 10 min.
8) Incubate at 28° C. for specified period of time. Add 40 µl of stop buffer (100 mM HEPES, pH 7.5; 0.015% Brij-35; 0.2% Coating Reagent #3; 50 mM EDTA) to stop reaction.
9) Collect data on Caliper. Convert conversion values to inhibition values.
wherein “max” stands for DMSO control; “min” stands for low control.
Fit the data in XLFit excel add-in version 5.4.0.8 to obtain IC50 values. Equation used is: […]
wherein X means concentration in a format not transformed to logarithms.

Test [1] has as its system LoVo (CCL-229) human colorectal cancer cells. Nature of the test: Tumor cell anti-proliferation assay (CTG assay). In kind it is cell-based. Particulars: 96 h incubation, CellTiter-Glo, IC50 (Y=50%). The text has this: Assay 2: Tumor Cell Anti-proliferation Assay (CTG Assay)
Human colorectal cancer cells HT-29 (HTB-38) and LoVo (CCL-229) were selected for the CTG assay, the two cell lines were originally obtained from the American Type Culture Collection (ATCC). Add FBS and appropriate additives into base medium to prepare complete medium, then briefly rinse the cell layer with 0.25% (w/v) Trypsin-0.038% (w/v) EDTA solution to remove all traces of serum that contains trypsin inhibitor, after that, add appropriate volume of Trypsin-EDTA solution to flask and observe cells under an inverted microscope until cell layer is dispersed, at last, add appropriate volume of complete growth medium and aspirate cells by gently pipetting. Collect and count numbers with Vi-cell XR and adjust cell density, seed cells into 96-well opaque-walled clear bottom tissue-culture treated plates in the CO2 incubator for 20-24 hours. All the test compounds will be at 10 mM in DMSO. Compounds are then added to the cell media in 3-fold serial dilutions, the final DMSO concentration is 0.5%. Incubate plates for 96 h at 5% CO2, 37° C. Before the measurement, transfer the appropriate volume of CellTiter-Glo Buffer into the amber bottle containing CellTiter-Glo substrate to reconstitute the lyophilized enzyme/substrate mixture, mix gently, this forms the CellTiter-Glo Reagent (Promega Cat. No. G7573). Equilibrate the plate and its contents to room temperature for approximately 30 minutes, then add 100 µL of CellTiter-Glo Reagent to the assay plate, mix contents for 2 minutes on an orbital shaker to induce cell lysis, incubate at room temperature for 10 minutes to stabilize luminescent signal, at last paste the clear bottom with white back seal and record luminescence with Enspire. IC50 and GI50 values were calculated with XLFit curve fitting software using 4 Parameter Logistic Model Y=Bottom + (Top-Bottom)/(1+(IC50/X)^HillSlope).
The following Table 3 provides the IC50 (Y=50%) values for exemplary compounds of Formula (I).
On the technique in general: ATP-based viability assays read luminescence as a measure of living cells.

T1 sequence (Q13535 whole entry): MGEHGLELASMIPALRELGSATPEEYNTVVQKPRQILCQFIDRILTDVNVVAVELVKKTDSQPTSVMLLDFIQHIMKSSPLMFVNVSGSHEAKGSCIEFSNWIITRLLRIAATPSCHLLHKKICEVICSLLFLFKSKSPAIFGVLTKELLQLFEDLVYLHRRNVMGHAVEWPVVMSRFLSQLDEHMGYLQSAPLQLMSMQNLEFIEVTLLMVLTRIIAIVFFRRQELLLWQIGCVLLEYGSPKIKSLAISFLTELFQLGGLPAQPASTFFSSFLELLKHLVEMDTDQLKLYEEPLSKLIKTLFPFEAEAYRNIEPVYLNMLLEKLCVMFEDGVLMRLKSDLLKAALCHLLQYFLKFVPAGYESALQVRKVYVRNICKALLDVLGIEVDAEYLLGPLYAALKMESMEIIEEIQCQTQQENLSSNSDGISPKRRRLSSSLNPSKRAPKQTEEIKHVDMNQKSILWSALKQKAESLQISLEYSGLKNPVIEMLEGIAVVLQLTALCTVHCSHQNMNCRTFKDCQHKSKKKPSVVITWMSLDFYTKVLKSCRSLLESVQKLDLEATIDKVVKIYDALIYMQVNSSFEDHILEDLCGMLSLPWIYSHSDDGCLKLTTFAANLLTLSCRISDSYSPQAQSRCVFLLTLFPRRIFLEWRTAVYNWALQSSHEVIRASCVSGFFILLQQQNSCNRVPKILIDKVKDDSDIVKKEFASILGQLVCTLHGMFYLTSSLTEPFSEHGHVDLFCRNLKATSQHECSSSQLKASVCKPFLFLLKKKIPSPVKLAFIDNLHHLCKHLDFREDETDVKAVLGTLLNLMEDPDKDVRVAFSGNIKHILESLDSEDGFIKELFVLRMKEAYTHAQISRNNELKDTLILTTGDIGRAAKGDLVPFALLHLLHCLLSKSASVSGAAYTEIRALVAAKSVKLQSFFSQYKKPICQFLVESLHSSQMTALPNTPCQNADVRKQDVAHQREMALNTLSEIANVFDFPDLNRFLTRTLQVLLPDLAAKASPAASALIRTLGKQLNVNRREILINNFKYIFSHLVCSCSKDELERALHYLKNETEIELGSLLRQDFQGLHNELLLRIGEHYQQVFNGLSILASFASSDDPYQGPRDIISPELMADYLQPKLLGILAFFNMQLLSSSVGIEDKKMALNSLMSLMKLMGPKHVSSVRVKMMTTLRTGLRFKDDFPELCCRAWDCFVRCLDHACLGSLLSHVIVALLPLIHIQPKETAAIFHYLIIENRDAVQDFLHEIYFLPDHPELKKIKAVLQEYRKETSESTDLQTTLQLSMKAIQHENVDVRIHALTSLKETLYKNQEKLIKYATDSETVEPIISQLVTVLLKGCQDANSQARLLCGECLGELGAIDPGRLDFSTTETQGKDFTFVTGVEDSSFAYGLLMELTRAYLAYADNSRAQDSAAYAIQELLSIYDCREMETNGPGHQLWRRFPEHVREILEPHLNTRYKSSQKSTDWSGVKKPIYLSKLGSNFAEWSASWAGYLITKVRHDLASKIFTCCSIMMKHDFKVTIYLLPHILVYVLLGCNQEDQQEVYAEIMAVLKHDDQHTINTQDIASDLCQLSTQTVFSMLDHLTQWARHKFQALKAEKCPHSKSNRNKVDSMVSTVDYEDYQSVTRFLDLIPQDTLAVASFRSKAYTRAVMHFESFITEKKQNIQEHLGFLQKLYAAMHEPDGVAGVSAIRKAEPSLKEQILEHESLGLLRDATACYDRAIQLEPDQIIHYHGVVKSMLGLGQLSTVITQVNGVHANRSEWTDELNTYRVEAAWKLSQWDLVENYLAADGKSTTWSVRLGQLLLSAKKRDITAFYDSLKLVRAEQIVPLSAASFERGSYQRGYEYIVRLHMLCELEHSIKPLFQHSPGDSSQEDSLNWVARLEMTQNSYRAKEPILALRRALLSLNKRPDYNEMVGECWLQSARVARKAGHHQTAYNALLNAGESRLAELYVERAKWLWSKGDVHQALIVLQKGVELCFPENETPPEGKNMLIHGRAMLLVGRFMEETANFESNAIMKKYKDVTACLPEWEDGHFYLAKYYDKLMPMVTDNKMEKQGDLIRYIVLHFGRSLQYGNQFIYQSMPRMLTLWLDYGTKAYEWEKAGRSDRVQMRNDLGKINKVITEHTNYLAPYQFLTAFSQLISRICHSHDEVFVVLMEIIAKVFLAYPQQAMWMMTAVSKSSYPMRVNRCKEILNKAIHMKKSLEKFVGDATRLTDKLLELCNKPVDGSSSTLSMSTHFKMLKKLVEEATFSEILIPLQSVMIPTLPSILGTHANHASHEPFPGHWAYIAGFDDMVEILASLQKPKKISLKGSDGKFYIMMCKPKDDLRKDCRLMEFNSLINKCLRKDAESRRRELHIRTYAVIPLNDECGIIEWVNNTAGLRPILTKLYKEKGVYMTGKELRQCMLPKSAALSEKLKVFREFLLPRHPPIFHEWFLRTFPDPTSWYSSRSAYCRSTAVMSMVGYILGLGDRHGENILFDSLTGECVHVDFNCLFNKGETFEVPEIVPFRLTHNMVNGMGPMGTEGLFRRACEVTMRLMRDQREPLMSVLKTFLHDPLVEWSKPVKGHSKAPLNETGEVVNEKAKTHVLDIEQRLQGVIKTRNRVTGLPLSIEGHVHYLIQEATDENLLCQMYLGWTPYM
T1 sequence (Q8WXE1 whole entry partner): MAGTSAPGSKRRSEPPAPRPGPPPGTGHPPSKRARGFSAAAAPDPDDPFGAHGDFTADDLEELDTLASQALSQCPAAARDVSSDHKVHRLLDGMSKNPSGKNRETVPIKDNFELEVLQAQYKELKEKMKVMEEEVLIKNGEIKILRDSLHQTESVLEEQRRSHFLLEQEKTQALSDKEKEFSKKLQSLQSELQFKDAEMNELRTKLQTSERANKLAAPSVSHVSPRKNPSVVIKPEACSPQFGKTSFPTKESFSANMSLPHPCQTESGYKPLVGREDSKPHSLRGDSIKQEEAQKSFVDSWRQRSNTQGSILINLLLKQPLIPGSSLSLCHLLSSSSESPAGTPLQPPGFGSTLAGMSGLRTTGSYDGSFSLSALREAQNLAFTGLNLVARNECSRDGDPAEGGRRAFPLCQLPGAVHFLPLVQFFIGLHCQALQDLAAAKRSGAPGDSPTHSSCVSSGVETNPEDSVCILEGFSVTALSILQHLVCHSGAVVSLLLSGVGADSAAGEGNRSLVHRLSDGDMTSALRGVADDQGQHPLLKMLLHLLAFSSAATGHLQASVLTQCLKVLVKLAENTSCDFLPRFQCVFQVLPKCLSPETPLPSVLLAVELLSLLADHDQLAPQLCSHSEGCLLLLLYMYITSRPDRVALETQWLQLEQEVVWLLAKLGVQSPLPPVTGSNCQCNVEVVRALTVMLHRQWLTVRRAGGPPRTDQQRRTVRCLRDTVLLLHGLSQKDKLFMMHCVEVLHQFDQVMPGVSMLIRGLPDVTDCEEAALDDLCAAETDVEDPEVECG

Turning to `Cc1cc(Nc2cc(-c3c(C)nnn3C)cc(N3CCOC[C@H]3C)n2)[nH]n1` [Compound 23, 4-(dimethyl-1H-1,2,3-triazol-5-yl)-N-(3-methyl-1H-pyrazol-5-yl)-6-[(3R)-3-methylmorpholin-4-yl]pyridin-2-amine], the IC50 is 15.5 nM on ATR kinase and 388 nM in test [1].

As to `Cc1cc(Nc2nc(N3CCOC[C@H]3C)cc(C3(C#N)CC3)n2)[nH]n1` [Compound 9, (R)-1-(2-((3-methyl-1H-pyrazol-5-yl)amino)-6-(3-methylmorpholino)pyrimidin-4-yl)cyclopropanecarbonitrile], the IC50 on ATR kinase was 22 nM; in test [1], 538 nM.

Turning to `C[C@@H]1COCCN1c1cc(C2(C#N)CCOCC2)cc(Nc2ccn[nH]2)n1` [Compound 39, (R)-4-(2-((1H-pyrazol-5-yl)amino)-6-(3-methylmorpholino)pyridin-4-yl) tetrahydro-2H-pyran-4-carbonitrile], half-maximal inhibition in test [1] (IC50) was put at 844 nM.

`Cc1cc(Nc2cc(-c3c(C)noc3C)cc(N3CCOC[C@H]3C)n2)[nH]n1` [Compound 47, (R)-4-(3,5-dimethylisoxazol-4-yl)-N-(3-methyl-1H-pyrazol-5-yl)-6-(3-methylmorpholino)pyridin-2-amine]: the IC50 in test [1] amounted to 390 nM.

On to `Cc1cc(Nc2cc(C3(S(C)(=O)=O)CC3)cc(N3CCOC[C@H]3C)n2)[nH]n1` [Compound 19, 4-(1-methanesulfonylcyclopropyl)-N-(3-methyl-1H-pyrazol-5-yl)-6-[(3R)-3-methylmorpholin-4-yl]pyridin-2-amine], for which the IC50 on ATR kinase came to 10.3 nM; in test [1], 225 nM.

Regarding `C[C@@H]1COCCN1c1cc(C(C)(C)C#N)cc(Nc2ccn[nH]2)n1` [Compound 24, (R)-2-(2-((1H-pyrazol-5-yl)amino)-6-(3-methylmorpholino)pyridin-4-yl)-2-methylpropanenitrile], the IC50 on ATR kinase was 17 nM; in test [1], 428 nM.

For the molecule `C[C@@H]1COCCN1c1cc(C(C)(C)C#N)nc(Nc2ccn[nH]2)n1` [Compound 28, (R)-2-(2-((1H-pyrazol-5-yl)amino)-6-(3-methylmorpholino)pyrimidin-4-yl)-2-methylpropanenitrile], the IC50 on ATR kinase came to 30.4 nM; in test [1] it was 406 nM.

For `C[C@@H]1COCCN1c1cc(C2(O)CCCCC2)cc(Nc2ccn[nH]2)n1` [Compound 43, (R)-1-(2-((1H-pyrazol-5-yl)amino)-6-(3-methylmorpholino)pyridin-4-yl) cyclohexan-1-ol], the values for the IC50 (on ATR kinase; in test [1]) were 52.7 nM and 653 nM, respectively.

Regarding `Cc1noc(C)c1-c1cc(Nc2ccn[nH]2)nc(N2CCOC[C@H]2C)c1` [Compound 22, (R)-4-(3,5-dimethylisoxazol-4-yl)-6-(3-methylmorpholino)-N-(1H-pyrazol-5-yl)pyridin-2-amine], in test [1], the IC50 amounted to 192 nM.

For the molecule `C[C@@H]1COCCN1c1cc(N(C)S(C)(=O)=O)cc(Nc2ccn[nH]2)n1` [Compound 13, (R)-N-(2-((1H-pyrazol-5-yl)amino)-6-(3-methylmorpholino)pyridin-4-yl)-N-methylmethanesulfonamide], the IC50 in test [1] amounted to 807 nM.

Take `C[C@@H]1COCCN1c1cc(C2(S(C)(=O)=O)CC2)nc(Nc2ccn[nH]2)n1` [Compound 5, (R)-4-(3-methylmorpholino)-6-(1-(methylsulfonyl)cyclopropyl)-N-(1H-pyrazol-5-yl)pyrimidin-2-amine]: in test [1], half-maximal inhibition (IC50) required 653 nM.

For `Cc1cc(Nc2cc(C(C)(C)C#N)cc(N3CCOC[C@H]3C)n2)[nH]n1` [Compound 25, 2-methyl-2-{2-[(3-methyl-1H-pyrazol-5-yl)amino]-6-[(3R)-3-methylmorpholin-4-yl]pyridin-4-yl}propanenitrile], the results for the IC50 (on ATR kinase; in test [1]) were 11.8 nM and 309 nM, respectively.

Regarding `C[C@@H]1COCCN1c1cc(C2(C#N)CCCCC2)cc(Nc2ccn[nH]2)n1` [Compound 38, 1-{2-[(3R)-3-methylmorpholin-4-yl]-6-[(1H-pyrazol-5-yl)amino]pyridin-4-yl} cyclohexane-1-carbonitrile], the IC50 at ATR kinase is 12.3 nM; in test [1], 492 nM.

`C[C@@H]1COCCN1c1cc(C2(C#N)CCCC2)cc(Nc2ccn[nH]2)n1` [Compound 37, 1-{2-[(3R)-3-methylmorpholin-4-yl]-6-[(1H-pyrazol-5-yl)amino]pyridin-4-yl}cyclopentane-1-carbonitrile] showed an IC50 in test [1] of 800 nM.

With `C[C@@H]1COCCN1c1cc(C2(S(C)(=O)=O)CC2)c(CO)c(Nc2ccn[nH]2)n1` [Compound 17, (R)-(2-((1H-pyrazol-5-yl)amino)-6-(3-methylmorpholino)-4-(1-(methylsulfo-nyl)cyclopropyl)pyridin-3-yl)methanol], the IC50 in test [1] came out at 594 nM.

The molecule `C[C@@H]1COCCN1c1cc(C2(S(C)(=O)=O)CCOCC2)nc(Nc2ccn[nH]2)n1` [Compound 11, (R)-4-(3-methylmorpholino)-6-(4-(methylsulfonyl)tetrahydro-2H-pyran-4-yl)-N-(1H-pyrazol-5-yl)pyrimidin-2-amine] returned an IC50 in test [1] of 1310 nM.

As for `Cc1cnn(C)c1-c1cc(Nc2ccn[nH]2)nc(N2CCOC[C@H]2C)c1` [Compound 4, (R)-4-(1,4-dimethyl-1H-pyrazol-5-yl)-6-(3-methylmorpholino)-N-(1H-pyrazol-5-yl)pyridin-2-amine], the IC50 at ATR kinase stood at 16.3 nM; in test [1], 385 nM.

In test [1], `C[C@@H]1COCCN1c1cc(C2(C#N)CCCC2)nc(Nc2ccn[nH]2)n1` [Compound 40, (R)-1-(2-((1H-pyrazol-5-yl)amino)-6-(3-methylmorpholino)pyrimidin-4-yl) cyclopentane-1-carbonitrile] came in with an IC50 of 698 nM.

As for `C[C@@H]1COCCN1c1cc(C2(S(C)(=O)=O)CC2)c(F)c(Nc2ccn[nH]2)n1` [Compound 34, (R)-3-fluoro-6-(3-methylmorpholino)-4-(1-(methylsulfonyl)cyclopropyl)-N-(1H-pyrazol-5-yl)pyridin-2-amine], the IC50 in test [1] stood at 442 nM.

In turn, `Cc1cc(Nc2cc(C3(S(C)(=O)=O)CCOCC3)cc(N3CCOC[C@H]3C)n2)[nH]n1` [Compound 36, (R)-N-(3-methyl-1H-pyrazol-5-yl)-6-(3-methylmorpholino)-4-(4-(methylsulfonyl)tetrahydro-2H-pyran-4-yl)pyridin-2-amine] registered an IC50 in test [1] of 966 nM.

For the molecule `Cc1cnn(C)c1-c1cc(N2CCOC[C@H]2C)nc(Nc2ccn[nH]2)c1CO` [Compound 15, (R)-(2-((1H-pyrazol-5-yl)amino)-4-(1,4-dimethyl-1H-pyrazol-5-yl)-6-(3-methylmorpholino)pyridin-3-yl)methanol], the IC50 in test [1] was 515 nM.

Take `Cc1cnn(C)c1-c1cc(N2CCOC[C@H]2C)nc(Nc2ccn[nH]2)c1F` [Compound 33, (R)-4-(1,4-dimethyl-1H-pyrazol-5-yl)-3-fluoro-6-(3-methylmorpholino)-N-(1H-pyrazol-5-yl)pyridin-2-amine]: the IC50 in test [1] came to 842 nM.

For `C[C@@H]1COCCN1c1cc(C2(S(C)(=O)=O)CCOCC2)cc(Nc2ccn[nH]2)n1` [Compound 45, (R)-6-(3-methylmorpholino)-4-(4-(methylsulfonyl)tetrahydro-2H-pyran-4-yl)-N-(1H-pyrazol-5-yl)pyridin-2-amine], it took 1010 nM to reach half-maximal inhibition in test [1] (IC50).

As to `Cc1cc(Nc2cc(-c3c(C)cnn3C)cc(N3CCOC[C@H]3C)n2)[nH]n1` [Compound 46, (R)-4-(1,4-dimethyl-1H-pyrazol-5-yl)-N-(3-methyl-1H-pyrazol-5-yl)-6-(3-methylmorpholino)pyridin-2-amine], in test [1], the IC50 worked out at 410 nM.
